Where two headings read alike, the source gives them in different places.
Tests used:
[1] = test system: PANC-1 cell line; test: Cytotoxicity in PANC-1 cell line; format: cell-based, human
[2] = test system: lung adenocarcinoma A549 cells; test: Cytotoxicity in A549 cells; format: cell-based; conditions: Homo sapiens
Procedure: (§1) On the other hand, the data also confirmed the need for a strategy with a greater impact on pancreatic tumors. From this perspective, the multitarget FA4 appeared to be a promising candidate and was selected to be further investigated in the primary PDAC cell cultures of the present study.
(§2) Previous experiments were performed with human pancreas cancer cell lines PANC-1 (CRL-1469™), MiaPaCa2 (CRL-1420™), BxPC-3 (CRL-1687™), PANC-02.03 (CRL-2553™), AsPC-1 (CRL-1682™), human A549 lung cancer cells (CRM-CCL-185™), human MCF7 adenocarcinoma breast cells (HTB-22™), and human HepG2 hepatocarcinoma cells (HB-8065™), obtained from ATCC. PANC-1, MiaPaCa2, BxPC-3, PANC-02.03, AsPC-1, and MCF7cells were cultured in DMEM with heat inactivated 10% FBS, penicillin ([…]), and streptomycin ([…]). HepG2 cells were cultured in MEM supplemented with 10% (v/v) heat inactivated FPS, 1% (v/v) glutamine, 1% (v/v) penicillin, and streptomycin, 1% (v/v) NEAA. A549 cells were grown in HAM’S F12 supplemented with 10% heat inactivated FBS, 2 mM glutamine, 100 U mL^−1 penicillin, and 100 μg/mL streptomycin. All these cells were kept at 37 °C in a humidified incubator under an atmosphere of 5% CO2 in 75 cm^2 tissue culture flasks (Greiner Bio-One GmbH, Frickenhausen, Germany) and were harvested with trypsin-EDTA in their exponentially growing phase.

[3] = target: T1, σ2 receptor (Rattus norvegicus, UniProt Q5U3Y7); test: σ2 receptor radioligand binding assay
T1 sequence (Q5U3Y7 1-176): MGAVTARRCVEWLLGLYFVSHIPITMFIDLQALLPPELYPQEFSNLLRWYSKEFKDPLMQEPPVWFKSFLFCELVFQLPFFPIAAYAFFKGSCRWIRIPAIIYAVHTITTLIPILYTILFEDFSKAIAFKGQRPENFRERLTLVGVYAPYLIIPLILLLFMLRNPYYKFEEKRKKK
Procedure: (§3) The compounds underwent radioligand binding assays on σ1 and σ2 receptors, according to the previously adopted protocols.
(§4) σ1 and σ2 receptor binding were carried out following Matsumoto et al.. […] All the procedures for the binding assays were described previously by Abate and collaborators.

[4] = test system: hepatocarcinoma HepG2 cells; test: Cytotoxicity in HepG2 cells; format: cell-based; conditions: Homo sapiens
Procedure: as §1, §2

[5] = target: σ1 receptor (Cavia porcellus, UniProt Q60492); test: σ1 receptor radioligand binding assay; conditions: mean of n ≥ 3 separate experiments in duplicate, read-out: Ki ± SD σ1
Procedure: as §3, §4

[6] = test system: breast adenocarcinoma MCF7 cells; test: Cytotoxicity in MCF7 cells; format: cell-based; conditions: Homo sapiens
Procedure: as §1, §2

[7] = test system: PDAC-1 cells; test: Apoptosis assay (annexinV-FITC), PDAC-1; format: cell-based, human
Procedure: (§5) Previous studies reported that the modulation of σ2 receptor activity contributes to the initiation of the apoptotic process. Therefore, we evaluated the effect of FA4 on the induction of apoptosis in the PDAC primary cultures. To this aim, we measured the externalization of the plasma membrane phosphatidylserine, a reliable marker of cell apoptosis, which was quantified by the measurement of the fluorescence of annexin-V by spectrophotometric assay and microscopy. After 24 h of treatment with 10 μM FA4, a significant increase in the portion of apoptotic cells was observed compared to untreated control cells. The highest apoptotic index was measured in the PDAC-2 cells (17.6 ± 3.6, compared to 15.5 ± 4.9 in the PDAC-1 cells).
(§6) Cells were seeded in 96-well plates (5 × 10^3 cells/well), and after 24 h, the cells were fixed with 4% paraformaldehyde in PBS for 30 min, then washed twice with PBS and stained with annexinV-FITC in binding buffer (10 mM HEPES/NaOH pH 7.4, 140 mM NaCl, and 2.5 mM CaCl2) for 10 min in the dark at room temperature. Lastly, cells were washed with the assay binding buffer solution, and fluorescence was measured by using a multimode plate reader with excitation and emission filters at 485 nm and 535 nm, respectively, to determine the apoptotic index. […]

[8] = test system: pancreatic ductal adenocarcinoma (PDAC) primary cell cultures; test: Antiproliferative activity on PDAC primary cell cultures (both cultures together); format: cell-based; conditions: Homo sapiens; range over PDAC primary cell cultures; read-out: half maximal inhibitory concentration (IC50)
From the text: A new sigma-2 (σ2) receptor ligand (FA4) was efficiently synthesized and evaluated for cytotoxic, proapoptotic, and antimigratory activity on pancreatic ductal adenocarcinoma (PDAC) primary cell cultures, which restrained the aggressive and chemoresistant behavior of PDAC. […] The cytotoxic activity was associated with induction of apoptosis, resulting in apoptotic indexes higher than those observed after exposure to a clinically relevant concentration of the gemcitabine, the first-line drug used against PDAC.

[9] = test system: PDAC-1 cells; test: Scratch wound-healing migration assay, PDAC-1; format: cell-based, human; conditions: PDAC-1, FA4 10 µM, 24 h
Procedure: (§7) Cancer cell migration is a key factor contributing to the aggressiveness of PDAC. It is therefore important to find new compounds that can counteract or stop this process. To evaluate the effect of FA4 on cell migratory properties, a migration assay was performed by incubating cells for 24 h with FA4.
(§8) Cells were seeded into 96-well plates 72 h before the assay at a density of 5 × 10^4 /well and allowed to attach and to become confluent. Subsequently, a scratch was performed in every well with a 96-pin scratcher, allowing the formation of uniform scratches. Immediately after this passage, cells were cultured for 24 h in complete medium with the drug of interest for experimental wells or without any drug for the control wells. Pictures were taken with an optical microscope at different time points (0, 6, and 24 h) and analyzed with the Scratch Assay 6.2 software (Digital Cell Imaging Labs, Keerbergen, Belgium). The migration assay was performed in technical and biological triplicates, as reported previously.

[10] = test system: PANC-1 cell line; parameters: method as in PMID 34586588; conditions: read-out: Cytotoxicity IC50 ± SD PANC-1; cited from earlier work
[11] = test system: PDAC-1 cells; test: cells; conditions: Homo sapiens, 72 h, read-out: Cytotoxicity IC50 ± SD
Procedure: (§9) Human pancreatic adenocarcinoma primary cultures (PDAC1 and PDAC2) were cultured in RPMI + 10 % New Born Calf Serum + 1% Penicillin/ Streptomycin and maintained in standard conditions for <20 passages. Cells were routinely tested for Mycoplasma spp. and were free of contamination.
(§10) Cells were seeded in 96-well flat-bottom plates at a density of 3000/well, using both a control plate and an experimental plate. After 24 h, the control plate was fixed with cold 50% trichloroacetic acid, and the incubation with the compound of interest was performed in the experimental plate. After 72 h of incubation, the experimental plate was also fixed. Subsequently, both plates were washed and stained with the SRB solution, and after vigorous washing and drying, the bound dye was extracted from the cells with an alkaline solution. The absorption of SRB was measured spectrophotometrically at a wavelength of 490 nm and 540 nm. […] Thus, cell growth inhibition was calculated as the percentage versus vehicle-treated cells (“negative control”) OD (corrected for OD of the control plate before drug addiction). Finally, the half maximal inhibitory concentration (IC50) was calculated by nonlinear least squares curve fitting (GraphPad Prism 7, Intuitive Software for Science, San Diego, CA, USA), as described previously [33]. […]

[12] = test system: PDAC-2 cells; test: Apoptosis assay (annexinV-FITC), PDAC-2; format: cell-based, human
Procedure: as §5, §6

[13] = Sulforhodamine B (SRB) assay, Hs27; format: cell-based, human; conditions: human, normal skin fibroblast Hs27 cells; Hs27 nontransformed cells, SRB, 72 h; read-out: Cytotoxicity IC50 ± SD
Procedure: (§11) Cells were seeded in 96-well flat-bottom plates at a density of 3000/well, using both a control plate and an experimental plate. After 24 h, the control plate was fixed with cold 50% trichloroacetic acid, and the incubation with the compound of interest was performed in the experimental plate. After 72 h of incubation, the experimental plate was also fixed. Subsequently, both plates were washed and stained with the SRB solution, and after vigorous washing and drying, the bound dye was extracted from the cells with an alkaline solution. The absorption of SRB was measured spectrophotometrically at a wavelength of 490 nm and 540 nm. The intensity of the signal is proportional to the number of living cells and, therefore, a measure of their proliferation. Thus, cell growth inhibition was calculated as the percentage versus vehicle-treated cells (“negative control”) OD (corrected for OD of the control plate before drug addiction). Finally, the half maximal inhibitory concentration (IC50) was calculated by nonlinear least squares curve fitting (GraphPad Prism 7, Intuitive Software for Science, San Diego, CA, USA), as described previously [33]. The SRB assay was performed in technical and biological triplicates.

[14] = test system: normal fibroblast Hs27 cells; test: Sulforhodamine B (SRB) assay, Hs27; format: cell-based, human; conditions: Hs27 cells vs PDAC tumor cells
Procedure: as §11

[15] = test system: PDAC-2 cells; test: cells; conditions: Homo sapiens, PDAC-2, 72 h, read-out: Cytotoxicity IC50 ± SD
Procedure: as §9, §10

[16] = test system: PDAC xenografts; parameters: method as in PMID 34586588; conditions: cited from earlier work
[17] = Sulforhodamine B (SRB) assay, HPDE; format: cell-based, human; conditions: human; HPDE nontransformed cells, SRB, 72 h; read-out: Cytotoxicity IC50 ± SD
Procedure: as §11

[18] = test system: normal HPDE cells; test: Sulforhodamine B (SRB) assay, HPDE; format: cell-based, human; conditions: HPDE cells vs PDAC tumor cells
Procedure: as §11

[19] = test system: PDAC-2 cells; test: Scratch wound-healing migration assay, PDAC-2; format: cell-based, human; conditions: PDAC-2, FA4 10 µM, 24 h
Procedure: as §7, §8

[20] = Homo sapiens, PANC-1, read-out: Cytotoxicity IC50 ± SD PANC-1

Chain of σ1 receptor (Q60492 whole entry): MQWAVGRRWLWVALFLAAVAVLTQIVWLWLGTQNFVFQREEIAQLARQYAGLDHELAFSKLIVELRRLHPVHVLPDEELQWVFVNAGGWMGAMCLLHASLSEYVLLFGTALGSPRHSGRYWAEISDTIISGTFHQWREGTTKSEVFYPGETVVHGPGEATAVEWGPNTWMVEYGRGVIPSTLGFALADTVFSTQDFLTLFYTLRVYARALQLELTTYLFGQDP

Q: For `Cc1ccccc1N=C(N)Nc1ccccc1C` [DTG], which IC50 ([1]; PANC-1 cell line, read-out: Cytotoxicity IC50 ± SD PANC-1) is on record?
A: > 50 µM

Q: For `CC(C)=CCN1CC[C@]2(C)c3cc(O)ccc3C[C@H]1[C@H]2C` [(+)-pentazocine], which IC50 [1, 20] is on record?
A: > 50 µM

Q: With `Fc1ccc(-n2cc(CCCCN3CCC4(CC3)OCc3ccccc34)c3ccccc32)cc1` [Siramesine] as the compound, how does the IC50 ([1]; Homo sapiens, PANC-1 cell line, read-out: Cytotoxicity IC50 ± SD PANC-1) read?
A: > 50 µM

Q: For `c1ccc2c(c1)COC21CCN(CCCCn2ccc3ccccc32)CC1` [MT8, 1’-(4-(1H-indol-1-yl)butyl)-3H-spiro[isobenzofuran-1,4’-piperidine]], which “cytotoxic potency relative to FA4” value [1] is on record?
A: six-fold less potent than FA4

Q: And the IC50 [1, 20]?
A: 19.1 ± 1.3 µM

Q: And the IC50 [2]?
A: 4.29 µM

Q: What about the Ki [3] of the same compound?
A: 0.00043 ± 0.0001 µM

Q: What about the IC50 [4] of the same compound?
A: 3.2 µM

Q: And the Ki [5]?
A: 0.0273 ± 0.0026 µM

Q: And the IC50 [6]?
A: 6.02 µM

Q: For `CN(C)C(=S)N/N=C1\C(=O)N(CCCCN2CCC3(CC2)OCc2ccccc23)c2ccccc21` [FA4], which apoptotic index ([7]; PDAC-1, 10 μM, 24 h, annexinV-FITC fold change compared to control cells) is on record?
A: 15.5 ± 4.9

Q: And the “percentages of apoptotic cells compared to gemcitabine at 10 μM” value ([7]; PDAC-1, 24 h treatment)?
A: significantly higher

Q: What about the IC50 [8] of the same compound?
A: 0.701 to 0.825 µM

Q: And the migration rate [9]?
A: significantly inhibit the migration rate

Q: And the IC50 [10]?
A: 3.01 ± 0.9 µM

Q: And the IC50 [11]?
A: 0.825 ± 0.006 µM

Q: What about the apoptotic index ([12]; PDAC-2, 10 μM, 24 h, annexinV-FITC fold change compared to control cells) of the same compound?
A: 17.6 ± 3.6

Q: And the “percentages of apoptotic cells compared to gemcitabine at 10 μM” value ([12]; PDAC-2, 24 h treatment)?
A: significantly higher

Q: What about the IC50 at 72 h [13] of the same compound?
A: 5.55 ± 0.333 µM

Q: What about the “selectivity index (SI, IC50 non-tumor cells/IC50 tumor cells)” value [14] of the same compound?
A: 7

Q: And the IC50 [15]?
A: 0.701 ± 0.059 µM

Q: What about the “safety in PDAC xenografts” value [16] of the same compound?
A: safe

Q: And the IC50 at 72 h [17]?
A: 8.07 ± 0.302 µM

Q: What about the “selectivity index (SI, IC50 non-tumor cells/IC50 tumor cells)” value [18] of the same compound?
A: 11

Q: What about the migration rate [19] of the same compound?
A: significantly inhibit the migration rate

— PMC8911630, “New Pharmacological Strategies against Pancreatic Adenocarcinoma: The Multifunctional Thiosemicarbazone FA4” (Molecules, 2022)
